Measured values taken from article PMC3914206.

Experiments:
Type in all cases: binding
[1] = target: T1, panel of 442 kinases (Homo sapiens, UniProt Q15759); conditions: Compound Concentration 10 µM
T1 construct: purchased KINOMEscan
Source text: (§1) We assessed the selectivity of members of this scaffold using the KINOMEscan methodology across a near comprehensive panel of 442 kinases [[18,27]].

[2] = target: T2, panel of 442 kinases (Homo sapiens, UniProt Q9H2G2); conditions: kinase SLK; compound concentration 10 µM
T2 construct: purchased KINOMEscan
Source text: as §1

[3] = target: T3, panel of 442 kinases (Homo sapiens, UniProt Q9UQ88); conditions: Compound Concentration 10 µM
T3 construct: purchased KINOMEscan
T3 sequence (Q9UQ88 1-783): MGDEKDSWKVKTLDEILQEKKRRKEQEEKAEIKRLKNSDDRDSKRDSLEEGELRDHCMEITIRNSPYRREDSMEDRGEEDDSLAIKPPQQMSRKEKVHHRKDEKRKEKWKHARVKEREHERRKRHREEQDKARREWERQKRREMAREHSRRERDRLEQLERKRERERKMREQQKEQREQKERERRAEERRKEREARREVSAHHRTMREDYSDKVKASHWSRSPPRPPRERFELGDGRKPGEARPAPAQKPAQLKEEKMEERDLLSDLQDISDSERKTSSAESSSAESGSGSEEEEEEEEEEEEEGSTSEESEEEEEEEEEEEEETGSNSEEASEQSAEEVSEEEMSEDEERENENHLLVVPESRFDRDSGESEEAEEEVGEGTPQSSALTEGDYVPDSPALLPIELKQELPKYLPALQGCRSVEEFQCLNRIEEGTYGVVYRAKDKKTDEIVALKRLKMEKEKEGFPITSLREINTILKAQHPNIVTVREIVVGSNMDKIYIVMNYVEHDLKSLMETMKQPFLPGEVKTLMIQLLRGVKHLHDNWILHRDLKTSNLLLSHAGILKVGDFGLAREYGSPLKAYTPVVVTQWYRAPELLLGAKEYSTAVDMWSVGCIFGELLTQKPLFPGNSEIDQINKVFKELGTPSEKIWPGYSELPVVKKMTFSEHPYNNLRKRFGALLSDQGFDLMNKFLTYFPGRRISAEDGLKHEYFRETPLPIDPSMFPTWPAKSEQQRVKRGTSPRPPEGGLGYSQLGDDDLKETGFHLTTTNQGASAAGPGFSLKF
Source text: as §1

T2 sequence (Q9H2G2 whole entry): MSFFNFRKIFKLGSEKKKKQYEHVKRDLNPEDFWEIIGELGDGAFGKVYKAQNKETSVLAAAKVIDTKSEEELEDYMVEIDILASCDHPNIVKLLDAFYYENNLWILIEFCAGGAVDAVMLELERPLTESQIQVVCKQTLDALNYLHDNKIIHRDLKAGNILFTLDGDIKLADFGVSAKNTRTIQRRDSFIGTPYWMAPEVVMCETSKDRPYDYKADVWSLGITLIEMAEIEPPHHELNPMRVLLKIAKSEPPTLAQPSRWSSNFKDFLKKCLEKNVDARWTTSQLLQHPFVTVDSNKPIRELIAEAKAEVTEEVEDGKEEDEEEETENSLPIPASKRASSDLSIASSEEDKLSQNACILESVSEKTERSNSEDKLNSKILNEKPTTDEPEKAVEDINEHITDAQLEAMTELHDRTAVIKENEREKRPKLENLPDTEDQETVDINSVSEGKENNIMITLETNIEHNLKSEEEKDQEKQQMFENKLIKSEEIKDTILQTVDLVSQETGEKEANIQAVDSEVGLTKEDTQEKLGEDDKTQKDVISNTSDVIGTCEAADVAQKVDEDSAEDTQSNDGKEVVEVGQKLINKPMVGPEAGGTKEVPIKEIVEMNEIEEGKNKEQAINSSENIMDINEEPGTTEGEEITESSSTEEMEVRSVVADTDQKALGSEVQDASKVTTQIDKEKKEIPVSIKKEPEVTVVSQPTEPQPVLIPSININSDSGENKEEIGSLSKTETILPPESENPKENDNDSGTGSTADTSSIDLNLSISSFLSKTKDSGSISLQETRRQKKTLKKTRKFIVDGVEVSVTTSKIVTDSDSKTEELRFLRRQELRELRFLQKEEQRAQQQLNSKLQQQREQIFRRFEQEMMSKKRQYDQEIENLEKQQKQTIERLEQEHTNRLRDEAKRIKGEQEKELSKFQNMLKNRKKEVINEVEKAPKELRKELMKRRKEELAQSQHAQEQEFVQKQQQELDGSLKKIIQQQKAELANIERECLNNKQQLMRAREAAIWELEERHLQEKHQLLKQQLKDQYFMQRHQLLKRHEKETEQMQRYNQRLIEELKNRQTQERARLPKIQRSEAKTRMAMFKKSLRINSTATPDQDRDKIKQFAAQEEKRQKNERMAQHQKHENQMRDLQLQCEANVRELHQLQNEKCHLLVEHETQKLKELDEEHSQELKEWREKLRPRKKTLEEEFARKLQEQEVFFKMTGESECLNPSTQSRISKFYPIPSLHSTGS
T1 sequence (Q15759 whole entry): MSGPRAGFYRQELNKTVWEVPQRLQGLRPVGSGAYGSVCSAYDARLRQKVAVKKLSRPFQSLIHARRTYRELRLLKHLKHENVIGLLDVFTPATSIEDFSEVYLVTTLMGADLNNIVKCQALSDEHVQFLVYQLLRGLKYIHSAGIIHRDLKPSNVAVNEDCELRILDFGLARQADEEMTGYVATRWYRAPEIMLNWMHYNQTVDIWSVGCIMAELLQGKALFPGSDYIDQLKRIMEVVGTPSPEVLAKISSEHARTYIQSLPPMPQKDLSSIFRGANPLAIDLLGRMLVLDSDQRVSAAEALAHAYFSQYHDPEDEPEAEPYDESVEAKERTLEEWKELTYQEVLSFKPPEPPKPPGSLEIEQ

Structure (SMILES) | KINOMEscan: p38-beta [1] | % Ctrl, SLK [2] [% Ctrl] | KINOMEscan: CDC2L2 [3]
COc1cc(C(=O)N2CCC(N3CCN(C)CC3)CC2)ccc1Nc1ncc2c(n1)N(C)c1ccccc1C(=O)N2C [15 (LRRK2-IN-1)] | 60 | 100 | 82
COc1cc(C(=O)N2CCC(N3CCN(C)CC3)CC2)ccc1Nc1ncc2c(n1)N1CCc3cccc(c31)C(=O)N2C [Compound 24] | 56 | 49 | –
COc1cc(C(=O)N2CCC(N3CCN(C)CC3)CC2)ccc1Nc1ncc2c(n1)N(C1CCCC1)c1ccccc1C(=O)N2C [Compound 25, 11-cyclopentyl-2-((2-methoxy-4-(4-(4-methylpiperazin-1-yl)piperidine-1-carbonyl)phenyl)amino)-5-methyl-5H-benzo[e]pyrimido[5,4-b][1,4]diazepin-6(11H)-one] | 56 | 100 | 100
CCOc1cc(C(=O)N2CCC(N3CCN(C)CC3)CC2)ccc1Nc1ncc2c(n1)N(C1CCCC1)c1ccccc1C(=O)N2C [Compound 26] | 81 | 100 | 100
